Laboratory results as given in article PMC7115530 (European Journal of Medicinal Chemistry, 2012).

Biological target: SARS-CoV 3CL^pro (Severe acute respiratory syndrome coronavirus, UniProt P0C6X7)
Type: biochemical

CC(C)C[C@H](NC(=O)[C@@H](NC(=O)[C@H](C)NC(=O)OCc1ccccc1)C(C)C)C(=O)N[C@H](C#N)CCC(N)=O [Cbz-AVLQ-CN]
increase in potency over the other inhibitors tested: ~10 fold
